{
  "source": "paper PMC8353992",
  "about": "(Journal of medicinal chemistry, 2021)",
  "key": {"[1]": {"settings": "for decrease in CLint compared to 36: human, rat, s9"}, "[2]": {"settings": "human, pH 7.4"}, "SARS-CoV-2 3CL^pro": {"target": "SARS-CoV-2 3CL^pro (Severe acute respiratory syndrome coronavirus 2, UniProt P0DTD1)", "format": "biochemical"}},
  "data": [
    {"smiles": "O=C(Cc1cccnc1)N(Cc1cccc(Cl)c1)c1ccc(-c2cn[nH]c2)cc1", "note": "[Compound 42, N-[(3-Chlorophenyl)methyl]-N-[4-(1H-pyrazol-4-yl)phenyl]-2-(3-pyridyl)acetamide]", "values": [
      {"measurement": "decrease in CLint compared to 36", "setting": "[1]", "value": 2, "unit": "fold"}
    ]},
    {"smiles": "O=C(Cc1cncnc1)N(Cc1cccc(Cl)c1)c1ccc(-c2cn[nH]c2)cc1", "note": "[Compound 43, N-[(3-Chlorophenyl)methyl]-N-[4-(1H-pyrazol-4-yl)phenyl]-2-pyrimidin-5-yl-acetamide]", "values": [
      {"measurement": "decrease in CLint compared to 36", "setting": "[1]", "value": 4, "unit": "fold"}
    ]},
    {"smiles": "O=C(Nc1ccc(N(Cc2ccsc2)C(=O)Cn2nnc3ccccc32)cc1)C1CC1", "note": "[Compound 1, reference compound]", "values": [
      {"measurement": "microsomal clearance", "setting": "[1]; microsomes", "value": "exceptionally high"}
    ]},
    {"smiles": "O=C(Cn1nnc2ccccc21)N(Cc1cccc(Cl)c1)c1ccc(-c2cn[nH]c2)cc1", "note": "[Compound 36, N-(4-(1H-Pyrazol-4-yl)phenyl)-2-(1H-benzo[d][1,2,3]triazol-1-yl)-N-(3-chlorobenzyl)acetamide]", "values": [
      {"measurement": "M1 metabolite formation (oxidation of the benzylic 3-chlorophenyl ring)", "setting": "[2]", "value": 60, "unit": "%"},
      {"measurement": "M3 metabolite formation (cleavage of the 3-chlorobenzyl group)", "setting": "[2]", "value": 7, "unit": "%"}
    ]},
    {"smiles": "O=C(Cn1nnc2ccccc21)N(Cc1ccsc1)c1ccc(-c2cccnc2)cc1", "note": "[Compound 8, 2-(1H-Benzo[d][1,2,3]triazol-1-yl)-N-(4-(pyridin-3-yl)phenyl)-N-(thiophen-3-ylmethyl)acetamide]", "values": [
      {"measurement": "ligand efficiency (LE)", "setting": "SARS-CoV-2 3CL^pro", "value": 0.27}
    ]}
  ]
}
